Measurements reported in US20250008983A1, “COMPOSITIONS CONTAINING PEROXYACIDS TO CONTROL PATHOGEN GROWTH IN ANIMAL FEED AND RELATED METHODS” (KEMIN INDUSTRIES, INC., priority 2023, published 2025).
Converted amounts (≈) assume the structure as drawn. Marks after values point to notes of the source that are not given here.

Key:
[1] = test system: Salmonella enteriditis ATCC 13076; assay: DNA interaction Assay 2: treatment added to cells followed by extraction; assay type: cell-based; settings: 1 kg/T; two hours at 37° C.; n = 3
Method: Method (Assay 1: Treatment added to extracted DNA directly). One mL of cell suspension (ca. 10^8 cfu/mL in TSBYE) was harvested by centrifugation at 5000 rcf for 10 minutes. The supernatant was discarded and resuspended as detailed in the protocol provided by the supplier. DNA was extracted using the QIAamp DNA Mini kit (Cat #51304, Qiagen). The samples were incubated at 56° C. for two hours and eluted with 200 uL of nuclease-free water. The same eluent was run through the column twice to increase the DNA concentration. Extracted DNA was quantified using Quant-iT dsDNA high-sensitivity assay kit (Q33120; Thermo Fischer Scientific). Extracted DNA was subsequently treated with the different treatment groups with a final concentration of 1 kg/T (prepared in 10 mM PBS). 1.5 uL of treatment solution (prepared at 10 times higher concentration) is added to 13.5 uL of extracted DNA. The solution was mixed well and left to stand at room temperature for one hour. After one hour, the solution was diluted with nuclease-free water 10 times. DNA was subsequently quantified using Quant-iT dsDNA high-sensitivity assay kit (Q33120; Thermo Fischer Scientific). Method (Assay 2: Treatment added to cells followed by extraction). […] Extracted DNA was quantified using Quant-iT dsDNA high-sensitivity assay kit (Q33120; Thermo Fischer Scientific). […]

[2] = test system: Escherichia coli ATCC 25922; assay: Minimum inhibitory concentration (MIC), broth microdilution; assay type: cell-based
Method: Materials and Methods. The assay was conducted to determine the minimum inhibitory concentration (MIC) of peroxy-acids against Escherichia coli ATCC 25922. E. coli was purchased from American Type Culture Collection (ATCC). The strain was stored at −80° C. in glycerol. Prior to usage, E. coli was revived by streaking a loopful of culture onto TSAYE (i.e., tryptone soya agar yeast extract (CM0131 and LP0021; Oxoid) prepared as per recommended by Oxoid) with overnight incubation at 37° C. An overnight culture of E. coli was diluted in TSBYE (i.e, tryptone soya broth yeast extract (CM0129; Oxoid) prepared as per recommended by Oxoid) to obtain a cell suspension of ca. 10^5 CFU/mL. Subsequently, 100 μL of the diluted culture was added to 100 μL of the test solutions at the needed concentrations into a microtiter plate (92096; TPP Techno Plastic Products AG). Peroxy-acids were tested at an active concentration of 25-1600 μg/mL. Subsequently, the inoculated plate was incubated at 37° C. up to 48 hours with the bacterial cell density recorded at optical density (OD) 600 nm at 24 hours interval using a microplate reader (Varioskan LUX; Thermo Fisher).

[3] = Stability of PPA in various diluent (peroxy value by titrimetry); assay type: physicochemical
Method: Stability of PPA in various diluent. In a separate study, the peroxy value of the mixture was estimated using the titrimetry procedure in 10 minutes and after 4 h of preparing the PPA solution with different diluents.
The peroxy acid value of PPA, when diluted with different diluents, is summarized below in Table 12.

[4] = 2.5% ammonium hydroxide, after 10 minutes
[5] = 2.5% ammonium hydroxide, after 240 minutes
[6] = 5% sodium hydroxide, after 10 minutes
[7] = 5% sodium hydroxide, after 240 minutes
[8] = Deionized Water, after 10 minutes
[9] = Deionized Water, after 240 minutes
[10] = Sodium phosphate buffer, after 10 minutes
[11] = Sodium phosphate buffer, after 240 minutes

For `CCC(=O)OO` [Perpropionic acid, perpropionic acid], the “DNA concentration, Average ± SD, Assay 2” value [1] was 34.97 ± 4.54^a ng/uL, the “Minimum inhibitory concentration (μg/mL) against E. coli” value ([2]; no increment in OD over 48 hours, 37° C.) was 500 µg/mL (≈ 5.55 mM) and the MIC ([2]; preliminary results) was 500 ppm. It also gave a pH ([3]; 2 g PPA + 8 g 2.5% ammonium hydroxide) of 6.11, a pH ([3]; 2 g PPA + 8 g 5% sodium hydroxide) of 5.44 and a pH ([3]; 2 g PPA + 8 g Deionized Water) of 1.77. For the same compound, the pH ([3]; 2 g PPA + 8 g Sodium phosphate buffer) was 5.34, the “H2O2 (%)” value [3, 4] was 1.85% and the “PPA (%)” value [3, 4] was 4.18%. For the same compound, the “H2O2 (%)” value [3, 5] was 2.34%, the “PPA (%)” value [3, 5] was 3.31% and the “H2O2 (%)” value [3, 6] was 1.47%. The “PPA (%)” value [3, 6] was 4.4%, the “H2O2 (%)” value [3, 7] was 1.12% and the “PPA (%)” value [3, 7] was 2.55%. The “H2O2 (%)” value [3, 8] was 1.85%, the “PPA (%)” value [3, 8] was 5.54% and the “H2O2 (%)” value [3, 9] was 1.96%. For the same compound, the “PPA (%)” value [3, 9] was 4.75%, the “H2O2 (%)” value [3, 10] was 1.92% and the “PPA (%)” value [3, 10] was 5.82%. For the same compound, the “H2O2 (%)” value [3, 11] was 1.88% and the “PPA (%)” value [3, 11] was 5.19%.
